Reference: PubChem BioAssay AID463199 (Broad Institute, 2010)
Activity calls are given as the source filed them.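 How the source made its calls: active means AC50, the dose giving half-maximal effect, exceeds a fixed cutoff for a compound that rescues yeast growth under heat; inactive means the rest, inconclusive results apart.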

system: S. cerevisiae Burl-1 ts mutant growth, BacTiter-Glo, 38.5C 24 h; assay: growth induction of Burl-1 ts yeast mutant, dose response, counter-screen for SUMOylation pathway inhibitor project, whole organism, S. cerevisiae, luminescence (AID 463199)

Structure (SMILES) | AC50
Cc1ccc(C(=O)N/C(=C\c2cccs2)C(=O)NCc2ccncc2)cc1 | > 42 µM (inactive)
O=C(O)C1CCCN1C(=O)c1cncc(Br)c1 (configuration not stated) | > 42 µM (inactive)
CCCCCCCCc1nc(SCC(C)=O)n[nH]1 | > 42 µM (inactive)
O=C1c2ccccc2C(=O)N1CCSc1ccccc1 | > 42 µM (inactive)
O=C(CCSc1ccccc1)Nc1ncccn1 | > 42 µM (inactive)
NC(=O)NC(=O)CSc1nc(C2CCCCC2)n(-c2ccccc2)n1 | > 42 µM (inactive)
COc1ccc(/C=N/NC(=O)c2c(C)nc3ccccn23)cc1[N+](=O)[O-] | > 42 µM (inactive)
O=S(=O)(c1ccc(S(=O)(=O)N2CCCC2)cc1)N1CCCCC1 | > 42 µM (inactive)
CC(=O)N1CCc2cc(S(=O)(=O)CCC(=O)N3CCN(C(=O)c4ccco4)CC3)ccc21 | > 42 µM (inactive)
CCCC(=O)N(CCN1CCOCC1)c1nc2ccc(OCC)cc2s1 | > 42 µM (inactive)
CC(C)[C@H](NC(=O)C1(c2ccccc2)CCN(C(=O)OC(C)(C)C)CC1)C(=O)O | > 42 µM (inactive)
O=C1CCCN1CCC(=O)N1CCCC(N2CCN(c3ccccc3F)CC2)C1 (configuration not stated) | > 42 µM (inactive)
Brc1ccc(-c2cn3cccnc3n2)cc1 | > 42 µM (inactive)
COc1cc([C@@H]2CC=C(C(=O)O)[C@H](c3ccccc3F)N2S(=O)(=O)c2ccc(C)cc2)cc(OC)c1OC | > 42 µM (inactive)
Cc1nn(C)c(C)c1-c1c(C#N)c(N)nc2c1CCCCCC2 | > 42 µM (inactive)
CCOC(=O)c1ccc(NC(=O)c2nc[nH]c2C(=O)N2CCc3ccccc3C2)cc1 | > 42 µM (inactive)
Cc1ccnc(NC(=O)c2ccc(Br)s2)c1 | > 42 µM (inactive)
COc1cccc(NC(=O)Nc2cc(C(=O)NC(C)C)ccc2N2CC3CC(C2)c2cccc(=O)n2C3)c1 (configuration not stated) | > 42 µM (inactive)
CS(=O)(=O)N1CCCC(C(=O)Nc2ccc(F)cc2F)C1 (configuration not stated) | > 42 µM (inactive)
O=C(c1cc(-c2ccc(Cl)cc2)n(-c2ccc(Cl)cc2)n1)N1CCOCC1 | > 42 µM (inactive)
O=C(N/N=C\c1cn(-c2ccccc2)nc1-c1ccccc1)c1ccc(Br)o1 | > 42 µM (inactive)
Cc1n[nH]c(C)c1S(=O)(=O)N(CC(=O)NC1CCCC1)c1ccc(C(C)C)cc1 | 38.7 µM
CCn1c(SCC(N)=O)nnc1-c1cc2c(C)nn(-c3ccccc3)c2s1 | > 42 µM (inactive)
O=C(O)CNS(=O)(=O)Cc1ccccc1 | > 42 µM (inactive)
CCCOC(=O)C1=C(C)NC2=C(C(=O)CCC2)C1c1cccs1 (configuration not stated) | > 42 µM (inactive)

Structure (SMILES) | AC50
Cc1ccc(C(=O)/C=C/c2ccc(-c3ccccc3[N+](=O)[O-])o2)cc1 | > 42 µM (inactive)
Cc1ccc(-c2csc(NC(=O)CSc3nc(C)cs3)n2)cc1 | > 42 µM (inactive)
CCc1ccc2[nH]c(=O)c(C(c3nnnn3Cc3ccccc3)N3CCOCC3)cc2c1 (configuration not stated) | > 42 µM (inactive)
CSc1ccccc1-c1nc(-c2ccncc2)no1 | > 42 µM (inactive)
Cc1ccc(S(=O)(=O)N2CCOCC2)cc1NC(=O)COC(=O)CNC(=O)c1ccccc1 | > 42 µM (inactive)
Cc1ccc(-c2nc3c(=O)n(-c4ccccc4)c4c(c(=O)n(C)c(=O)n4C)c3o2)cc1 | > 42 µM (inactive)
Cc1cc(N2CCN(C)CC2)nc2ccc(NC(=S)N3CCC4(CC3)OCCO4)cc12 | > 42 µM (inactive)
CCOc1ccc(Cl)cc1S(=O)(=O)N1CCC(C(=O)NCc2cccnc2)CC1 | > 42 µM (inactive)
COc1ccc2[nH]c(=O)c(CN(C(=O)c3ccccn3)c3ccccc3)cc2c1 | > 42 µM (inactive)
O=C(COc1ccccc1)Nc1ccc(OC(F)(F)C(F)F)c(NC(=O)COc2ccccc2)c1 | > 42 µM (inactive)
Cc1ccc(/C=C/C(=O)O)cc1S(=O)(=O)N(CCO)CCO | > 42 µM (inactive)
Cc1cccc(N(Cc2ccccc2)C(=O)CSC(C)C(=O)Nc2cc(C)on2)c1 (configuration not stated) | > 42 µM (inactive)
O=S(=O)(c1cccc(-c2nnco2)c1)N1CCCC1 | > 42 µM (inactive)
COc1ccccc1CCNC(=O)/C(=C/c1cccnc1)NC(=O)c1ccccc1 | > 42 µM (inactive)
Cc1cc(-c2ccccc2)n(-c2ccc(C(=O)NC(C)C)cc2)n1 | > 42 µM (inactive)
CCc1cccc(C)c1NC(=O)CSc1nnc(-c2cc3cc(Br)ccc3o2)n1CC | > 42 µM (inactive)
CCCCC(=O)Nc1cc(OC)c(NC(=O)C2CCCCC2)cc1OC | > 42 µM (inactive)
CCOc1ccc(Br)cc1S(=O)(=O)N1CCC(C(N)=O)CC1 | > 42 µM (inactive)
Cc1c(NP(=O)(c2ccc(Br)cc2)c2ccc(Br)cc2)c(=O)n(-c2ccccc2)n1C | > 42 µM (inactive)
CSc1nsc(SCC(=O)Nc2cccc(C(=O)O)c2)n1 | > 42 µM (inactive)
Cc1ccc(N(CC(=O)NC2CCCC2)C(=O)CCC(=O)Nc2ccccn2)cc1C | > 42 µM (inactive)
O=C(c1cc2ccccc2o1)N1CCN(C/C=C/c2ccccc2)CC1 | > 42 µM (inactive)
COc1ccccc1NC(=S)N(Cc1ccco1)Cc1cc2cccc(C)c2[nH]c1=O | > 42 µM (inactive)
COC(=O)c1ccc(SCC(=O)N2CCC(C)CC2)c([N+](=O)[O-])c1 | > 42 µM (inactive)
COc1cc(/C=N/NC(=S)NCc2ccco2)cc(OC)c1OC | > 42 µM (inactive)

Structure (SMILES) | AC50
CCCCCNC(=O)c1ccc2c(=O)n(CC3CCCO3)c(=O)[nH]c2c1 (configuration not stated) | 7.49 µM
O=C(Cc1cccs1)N1CCCC(c2nc3c(nnn3Cc3ccc(F)cc3)c(=O)[nH]2)C1 (configuration not stated) | > 42 µM (inactive)
CCOC(=O)N1CCN(S(=O)(=O)c2ccc(C)c(C)c2)CC1 | > 42 µM (inactive)
Cc1cc(NC(=O)CSc2ncn(-c3ccccc3)n2)no1 | > 42 µM (inactive)
COc1ccc(OC)c(NC(=O)CNC(=O)Cn2ccc3ccccc3c2=O)c1 | > 42 µM (inactive)
COc1ccc(NC(=O)C2CCCN2S(=O)(=O)c2cccc3cccnc23)cc1OC (configuration not stated) | > 42 µM (inactive)
CCN1C(=S)N[C@@H](c2cccs2)C(C(=O)OC)=C1C | > 42 µM (inactive)
COc1ccc2c(c1)[C@H]1[C@H](CO2)[C@H](c2ccccc2)[C@]2(C)C(=O)Nc3ccc(C)cc3C(=O)N12 | > 42 µM (inactive)
C[C@H]1CN=C(Nc2ccccc2)N1CCC1CCCC1 | > 42 µM (inactive)
O=C(Nc1ccncc1Cl)c1ccncc1 | > 42 µM (inactive)
COc1cc(C(=O)COC(=O)c2cc([N+](=O)[O-])ccc2N2CCOCC2)ccc1OC(F)F | > 42 µM (inactive)
CCCCOc1ccc(C(=O)Nc2ccc(CN3CCOCC3)cc2)cc1 | > 42 µM (inactive)
CN(C)C(=O)CNC(=O)C1CCCCC1 | > 42 µM (inactive)
Cc1sc2ncn(C(C)C(=O)OC3CCCCC3)c(=O)c2c1C (configuration not stated) | > 42 µM (inactive)
c1ccc2cc(C3CCCCC3)ncc2c1 | > 42 µM (inactive)
CC1CCN(CCNC(=O)C2CCCN(S(=O)(=O)c3cccc4nsnc34)C2)CC1 (configuration not stated) | > 42 µM (inactive)
COC(=O)c1cn(C(=O)c2cccc3ccccc23)c2ccccc12 | > 42 µM (inactive)
Cc1nn(CC(=O)Nc2ccccn2)c(C)c1[N+](=O)[O-] | > 42 µM (inactive)
CCOc1ccccc1N(CC(=O)Nc1ccccc1C(=O)N1CCCC1)S(C)(=O)=O | > 42 µM (inactive)
CCn1cc(C(=O)NCc2ccccn2)c(=O)c2cc(F)c(N3CCN(C)CC3)cc21 | > 42 µM (inactive)
O=C(Nc1cccc(O)c1)C(Cc1ccccc1)N1C(=O)c2cccc3cccc(c23)C1=O (configuration not stated) | > 42 µM (inactive)
COc1ccc(Cl)cc1NC(=O)C1CCCN(c2cc(C)nc3ncnn23)C1 (configuration not stated) | > 42 µM (inactive)
Cc1ccc(S(=O)(=O)N2[C@@H](c3ccccc3F)C(C(=O)O)=CC[C@H]2c2ccc3c(c2)OCO3)cc1 | > 42 µM (inactive)
Cc1cc(C)cc(OCC(=O)NC2CCCc3ccccc32)c1 (configuration not stated) | > 42 µM (inactive)
Cc1occc1-c1nnc(SCC(=O)N2CCN(c3ccccc3)CC2)n1C | > 42 µM (inactive)

Structure (SMILES) | AC50
CCOC(=O)c1c(C)n(C)c2cc(-c3ccc(C)cc3)c(O)cc12 | > 42 µM (inactive)
COc1ccc(-c2c(C)nn3c(C)cc(C)nc23)cc1 | > 42 µM (inactive)
NC1=NC2(CCCC2)N=C(Nc2ccccc2)N1 | > 42 µM (inactive)
COc1ccc2c(c1)[C@H]1[C@H](CO2)[C@H](c2ccccc2)[C@]2(C)C(=O)Nc3ccc(F)cc3C(=O)N12 | > 42 µM (inactive)
CCOc1ccc(NS(=O)(=O)c2ccc(C(=O)NCc3cccnc3)cc2)cc1 | > 42 µM (inactive)
COc1ccc2cc(C#N)c(Nc3cccc(F)c3)nc2c1 | > 42 µM (inactive)
CC1CCCC(C)N1C(=O)CSc1nnnn1-c1cccc2c1CCCC2 (configuration not stated) | > 42 µM (inactive)
Cc1ccc(-n2c(C)cc(/C=N/NC(=O)c3ccncc3)c2C)cc1C | > 42 µM (inactive)
COc1ccc(CN2C(=O)c3c(c(C)n(C)c3C)C2C(=O)NC2CCC(C)CC2)cc1 (configuration not stated) | > 42 µM (inactive)
CCCCc1n[nH]c(=S)n1Cc1ccc(C)cc1 | > 42 µM (inactive)
CC1C(=O)CC(c2ccccc2)N(C)C1c1ccccc1 (configuration not stated) | > 42 µM (inactive)
Cc1ccc(N/C=C(\C#N)c2ccc(OCCCF)cc2)cc1 | > 42 µM (inactive)
O=C(/C(=N\Nc1ccc(Br)cc1)Sc1nnnn1-c1ccccc1)c1ccccc1 | > 42 µM (inactive)
CCc1ccc(-n2c(Cc3ccccc3)n[nH]c2=S)cc1 | > 42 µM (inactive)
CC1CN(C(=O)c2cc([N+](=O)[O-])cc([N+](=O)[O-])c2)CC(C)O1 (configuration not stated) | > 42 µM (inactive)
O=C(Nc1ccccc1)N1CCN(CCc2ccccc2)CC1 | > 42 µM (inactive)
COC(=O)c1sccc1NC(=S)N1CCCCC1 | > 42 µM (inactive)
CCN(C(=O)Nc1ccccc1OC)c1c(N)n(Cc2ccccc2)c(=O)[nH]c1=O | > 42 µM (inactive)
C/C(CC1(O)C(=O)Nc2ccccc21)=N\O (configuration not stated) | > 42 µM (inactive)
O=C(Nc1ccccc1N1CCN(c2ccccc2)CC1)c1cccc(F)c1 | > 42 µM (inactive)
Cc1cccc(CSc2ccc(-c3ccco3)nn2)c1 | > 42 µM (inactive)
COc1ccc2c(c1)c(CC(=O)OCC(N)=O)c(C)n2C(=O)c1ccc(Cl)cc1 | > 42 µM (inactive)
